biological target: T1, CRTH2 (Homo sapiens, UniProt Q9Y5Y4); assay: FRET based competitive immunoassay (cAMP) in CRTH2 expressing CHO cells; assay type: cell-based; conditions: CRTH2 expressing CHO cells incubated with forskolin and PGD2; Eu3+ cryptate-labeled anti-cAMP and d2-labeled cAMP
T1 construct: expressed in transfected cells; host or cells: CHO cells
T1 sequence (Q9Y5Y4 1-395): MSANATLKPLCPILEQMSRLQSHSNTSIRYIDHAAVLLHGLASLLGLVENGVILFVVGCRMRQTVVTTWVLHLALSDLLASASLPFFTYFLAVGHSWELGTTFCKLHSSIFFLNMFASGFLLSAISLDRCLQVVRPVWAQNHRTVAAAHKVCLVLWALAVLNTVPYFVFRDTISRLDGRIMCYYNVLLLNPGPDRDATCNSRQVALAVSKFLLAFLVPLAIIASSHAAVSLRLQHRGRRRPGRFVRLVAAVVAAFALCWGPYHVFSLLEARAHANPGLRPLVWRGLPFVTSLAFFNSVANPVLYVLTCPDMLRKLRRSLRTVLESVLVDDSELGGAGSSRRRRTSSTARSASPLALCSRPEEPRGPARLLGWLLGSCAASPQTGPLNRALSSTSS
Protocol: FRET Assay: To evaluate potency compounds were tested in a FRET based competitive immunoassay in which CRTH2 expressing CHO cells were incubated in the presence of forskolin and PGD2 along with Eu3+ cryptate-labeled anti-cAMP and d2-labeled cAMP.

SMILES | IC50 [nM]
Cc1c(-c2ccc(=O)n(Cc3cc(F)c(F)cc3F)n2)c2cc(Cl)ccc2n1CC(=O)O [Example 69, 2-(5-chloro-2-methyl-3-(6-oxo-1-(2,4,5-trifluorobenzyl)-1,6-dihydropyridazin-3-yl)-1H-indol-1-yl)acetic acid] | 7
Cc1c(-c2ccc(=O)n(Cc3cc(F)c(F)cc3F)n2)c2cc(F)ccc2n1CC(=O)O [Example 70, 2-(5-fluoro-2-methyl-3-(6-oxo-1-(2,4,5-trifluorobenzyl)-1,6-dihydro-pyridazin-3-yl)-1H-indol-1-yl)acetic acid] | 16
Cc1c(-c2ccc(=O)n(Cc3ccc(F)cc3F)n2)c2cc(F)ccc2n1CC(=O)O [Example 71, 2-(3-(1-(2,4-difluorobenzyl)-6-oxo-1,6-dihydropyridazin-3-yl)-5-fluoro-2-methyl-1H-indol-1-yl)acetic acid] | 17
Cc1c(-c2ccc(=O)n(Cc3cc(F)ccc3F)n2)c2cc(F)ccc2n1CC(=O)O [Example 72, 2-(3-(1-(2,5-Difluorobenzyl)-6-oxo-1,6-dihydropyridazin-3-yl)-5-fluoro-2-methyl-1H-indol-1-yl)acetic acid] | 43
Cc1c(-c2ccc(=O)n(Cc3ccc(S(C)(=O)=O)cc3)n2)c2cc(F)ccc2n1CC(=O)O [Example 73, 2-(5-fluoro-2-methyl-3-(1-(4-(methylsulfonyl)benzyl)-6-oxo-1,6-dihydro-pyridazin-3-yl)-1H-indol-1-yl)acetic acid] | 76
Cc1c(Cc2ccc(=O)n(Cc3ccccc3F)n2)c2ccccc2n1CC(=O)O [Example 74, 2-(3-((1-(2-fluorobenzyl)-6-oxo-1,6-dihydropyridazin-3-yl)methyl)-2-methyl-1H-indol-1-yl)acetic acid] | 2
Cc1c(Cc2ccc(=O)n(Cc3cccc(F)c3)n2)c2ccccc2n1CC(=O)O [Example 75, 2-(3-((1-(3-fluorobenzyl)-6-oxo-1,6-dihydropyridazin-3-yl)methyl)-2-methyl-1H-indol-1-yl)acetic acid] | 101
Cc1c(Cc2ccc(=O)n(Cc3ccc(F)cc3)n2)c2ccccc2n1CC(=O)O [Example 76, 2-(3-((1-(4-fluorobenzyl)-6-oxo-1,6-dihydropyridazin-3-yl)methyl)-2-methyl-1H-indol-1-yl)acetic acid] | 16
Cc1c(Cc2ccc(=O)n(Cc3ccccc3)n2)c2ccccc2n1CC(=O)O [Example 77, 2-(3-((1-Benzyl-6-oxo-1,6-dihydropyridazin-3-yl)methyl)-2-methyl-1H-indol-1-yl)acetic acid] | 32
Cc1c(CC2=NN(Cc3ccccc3)C(=O)CC2)c2cc(F)ccc2n1CC(=O)O [Example 78, 2-(3-((1-Benzyl-6-oxo-1,4,5,6-tetrahydropyridazin-3-yl)methyl)-5-fluoro-2-methyl-1H-indol-1-yl)acetic acid] | 2
Cc1c(Cc2ccc(=O)n(Cc3cccc(F)c3F)n2)c2ccccc2n1CC(=O)O [Example 79, 2-(3-((1-(2,3-difluorobenzyl)-6-oxo-1,6-dihydropyridazin-3-yl)methyl)-2-methyl-1H-indol-1-yl)acetic acid] | 22
Cc1c(Cc2ccc(=O)n(Cc3ccccc3)n2)c2cc(Cl)ccc2n1CC(=O)O [Example 80, 2-(3-((1-Benzyl-6-oxo-1,6-dihydropyridazin-3-yl)methyl)-5-chloro-2-methyl-1H-indol-1-yl)acetic acid] | 16
Cc1c(Cc2ccc(=O)n(Cc3ccc(C(F)(F)F)cc3)n2)c2cc(Cl)ccc2n1CC(=O)O [Example 81, 2-(5-Chloro-2-methyl-3-((6-oxo-1-(4-(trifluoromethyl)benzyl)-1,6-dihydropyridazin-3-yl)-methyl)-1H-indol-1-yl)acetic acid] | 23
Cc1c(Cc2ccc(=O)n(Cc3ccc(C(F)(F)F)cc3)n2)c2cc(F)ccc2n1CC(=O)O [Example 82, 2-(5-fluoro-2-methyl-3-((6-oxo-1-(4-(trifluoromethyl)benzyl)-1,6-dihydro-pyridazin-3-yl)methyl)-1H-indol-1-yl)acetic acid] | 16
Cc1c(Cc2nn(Cc3ccccc3)c(=O)c3ccccc23)c2cc(Cl)ccc2n1CC(=O)O [Example 84, 2-(3-((3-Benzyl-4-oxo-3,4-dihydrophthalazin-1-yl)methyl)-5-chloro-2-methyl-1H-indol-1-yl)acetic acid] | 28
Cc1c(Cc2cn(Cc3ccccc3)c(=O)c3ccccc23)c2cc(F)ccc2n1CC(=O)O [Example 85, 2-(3-((2-benzyl-1-oxo-1,2-dihydroisoquinolin-4-yl)methyl)-5-fluoro-2-methyl-1H-indol-1-yl)acetic acid] | 62

SMILES | IC50 [nM]
Cc1c(Cc2cn(Cc3ccccc3)c(=O)c3ccccc23)c2ccccc2n1CC(=O)O [Example 86, 2-(3-((2-benzyl-1-oxo-1,2-dihydroisoquinolin-4-yl)methyl)-2-methyl-1H-indol-1-yl)acetic acid] | 197
Cc1c(Cc2cn(Cc3ccccc3)c(=O)c3ccccc23)c2cc(Cl)ccc2n1CC(=O)O [Example 87, 2-(3-((2-benzyl-1-oxo-1,2-dihydroisoquinolin-4-yl)methyl)-5-chloro-2-methyl-1H-indol-1-yl)acetic acid] | 210
Cc1c(-c2cn(Cc3ccccc3)c(=O)c3c2CCCC3)c2cc(F)ccc2n1CC(=O)O [Example 88, 2-(3-(2-benzyl-1-oxo-1,2,5,6,7,8-hexahydroisoquinolin-4-yl)-5-fluoro-2-methyl-1H-indol-1-yl)acetic acid] | 197
Cc1c(-c2cn(CCCC(F)(F)F)c(=O)c3c2CCCC3)c2cc(F)ccc2n1CC(=O)O [Example 89, 2-(5-fluoro-2-methyl-3-(1-oxo-2-(4,4,4-trifluorobutyl)-1,2,5,6,7,8-hexahydro-isoquinolin-4-yl)-1H-indol-1-yl)acetic acid] | 123
Cc1c(-c2cn(CC(F)(F)F)c(=O)c3c2CCCC3)c2cc(F)ccc2n1CC(=O)O [Example 90, 2-(5-fluoro-2-methyl-3-(1-oxo-2-(2,2,2-trifluoroethyl)-1,2,5,6,7,8-hexahydro-isoquinolin-4-yl)-1H-indol-1-yl)acetic acid] | > 1000
Cc1c(-c2cn(C(C)C)c(=O)c3c2CCCC3)c2cc(F)ccc2n1CC(=O)O [Example 91, 2-(5-fluoro-3-(2-isopropyl-1-oxo-1,2,5,6,7,8-hexahydroisoquinolin-4-yl)-2-methyl-1H-indol-1-yl)acetic acid] | 107
Cc1c(-c2cn(CC(C)(C)O)c(=O)c3c2CCCC3)c2cc(F)ccc2n1CC(=O)O [Example 92, 2-(5-fluoro-3-(2-(2-hydroxy-2-methylpropyl)-1-oxo-1,2,5,6,7,8-hexahydro-iso-quinolin-4-yl)-2-methyl-1H-indol-1-yl)acetic acid] | > 1000
Cc1c(-c2cn(CCc3ccccc3)c(=O)c3c2CCCC3)c2cc(F)ccc2n1CC(=O)O [Example 93, 2-(5-fluoro-2-methyl-3-(1-oxo-2-phenethyl-1,2,5,6,7,8-hexahydro-iso-quinolin-4-yl)-1H-indol-1-yl)acetic acid] | 21
Cc1c(-c2cn(Cc3ccc(F)cc3F)c(=O)c3c2CCCC3)c2cc(F)ccc2n1CC(=O)O [Example 94, 2-(3-(2-(2,4-difluorobenzyl)-1-oxo-1,2,5,6,7,8-hexahydroisoquinolin-4-yl)-5-fluoro-2-methyl-1H-indol-1-yl)acetic acid] | 119
Cc1c(-c2cn(Cc3ccccn3)c(=O)c3ccccc23)c2cc(F)ccc2n1CC(=O)O [Example 95, 2-(5-fluoro-2-methyl-3-(1-oxo-2-(pyridin-2-ylmethyl)-1,2-dihydro-isoquinolin-4-yl)-1H-indol-1-yl)acetic acid] | 9
Cc1c(-c2cn(CCC(C(F)(F)F)C(F)(F)F)c(=O)c3ccccc23)c2cc(F)ccc2n1CC(=O)O [Example 96, 2-(5-fluoro-2-methyl-3-(1-oxo-2-(4,4,4-trifluoro-3-(trifluoromethyl)butyl)-1,2-dihydroisoquinolin-4-yl)-1H-indol-1-yl)acetic acid] | 296
Cc1c(-c2nn(Cc3cccc(F)c3F)c(=O)c3ccccc23)c2cc(Cl)ccc2n1CC(=O)O [Example 97, 2-(5-chloro-3-(3-(2,3-difluorobenzyl)-4-oxo-3,4-dihydrophthalazin-1-yl)-2-methyl-1H-indol-1-yl)acetic acid] | 7
Cc1c(-c2nn(Cc3ccccc3F)c(=O)c3ccccc23)c2cc(Cl)ccc2n1CC(=O)O [Example 98, 2-(5-Chloro-3-(3-(2-fluorobenzyl)-4-oxo-3,4-dihydrophthalazin-1-yl)-2-methyl-1H-indol-1-yl)acetic acid] | 17
Cc1c(-c2nn(Cc3nc4cc(F)ccc4s3)c(=O)c3ccccc23)c2cc(Cl)ccc2n1CC(=O)O [Example 99, 2-(5-chloro-3-(3-((5-fluorobenzo[d]thiazol-2-yl)methyl)-4-oxo-3,4-dihydrophthalazin-1-yl)-2-methyl-1H-indol-1-yl)acetic acid] | 10
Cc1c(-c2nn(Cc3nc4cc(C(F)(F)F)ccc4s3)c(=O)c3ccccc23)c2cc(Cl)ccc2n1CC(=O)O [Example 100, 2-(5-chloro-2-methyl-3-(4-oxo-3-((5-(trifluoromethyl)benzo[d]thiazol-2-yl)-methyl)-3,4-dihydrophthalazin-1-yl)-1H-indol-1-yl)acetic acid] | 81

— patent publication US20110105509A1 (Wyeth, LLC, priority 2009, published 2011)
